From PMC8197720, “Targeted radioimmunotherapy with the iodine-131-labeled caerin 1.1 peptide for human anaplastic thyroid cancer in nude mice” (Annals of Nuclear Medicine, 2021)

Legend:
[1] = test system: CAL-62 tumor; assay: CAL-62 subcutaneous xenograft treatment experiment with H&E and TUNEL staining; assay type: in vivo, BALB/C nude mice; details: tumor sections after treatment, compared to PBS group
Description: (§1) To reduce the unnecessary thyroid uptake of ^131I, before the in vivo experiments, all nude mice were fed potassium iodide in a concentration of 0.1% for 3 days to saturate the thyroid. CAL-62 tumor-bearing mice were randomly divided into four groups (n = 5 per group) that received one of the following treatments: PBS, F1 only, ^131I-F1, ^131I only. The mice were injected intratumorally with 100 µl PBS containing 8 µg of F1 peptide, 200 µCi of ^131I or 8 µg of F1 peptide labeled with 200 µCi ^131I every 3 days for a total of three times. Then, 3 days after the final treatment, the mice were sacrificed, and the tumors were isolated and weighed.

[2] = Body weight of CAL-62 tumor-bearing mice under treatment; assay type: in vivo, BALB/C nude mice; details: intratumoral, 8 µg F1 and/or 200 µCi 131I every 3 days, three times, n = 5, mean ± SD
Description: as §1
Next, we studied whether F1 was able to inhibit CAL-62 cell growth in vivo. Nude mice were subcutaneously injected with 5 × 10^5 CAL-62 cells. When the tumor diameters were close to 6 mm, the mice were treated with 100 µl PBS containing 8 µg of F1 peptide, 200 µCi of ^131I or 8 µg of F1 peptide labeled with 200 µCi ^131I every 3 days for a total of three times. […] The mice were euthanized, and the tumors were isolated and weighed.

[3] = test system: cervical cancer cell (TC-1); details: 30 μg of peptide; cited from earlier work
Description: First, ^131I-F1 was successfully synthesized using the chloramine-T method. […] Furthermore, a subcutaneous xenograft model was used to investigate the antitumor activity of ^131I-F ...

Compound: [131I-].[Na+] [^131I, iodine-131]
- H&E staining of tumors (ablation/necrosis of tumor cells) [1]: only a few necrosis events
- Weight of the mice three days after the final treatment [2]: 16.43 ± 1.386 g

Compound: caerin 1.9 [F3]
- Inhibitory effect on TC-1 in vivo [3]: significant inhibitory effect
